EP2296651B1, “5-HYDROXYMETHYL-OXAZOLIDIN-2-ONE DERIVATIVES FOR TREATING BACTERIAL INTESTINAL DISEASES” (Actelion Pharmaceuticals Ltd., priority 2008, dated 2009)
In brackets after ≈: the same amount, converted by molar mass.

Experiments:
[1] = tested on: C. difficile NC 13366; assay: Broth microdilution MIC, anaerobic; type: cell-based, Clostridium difficile; conditions: Clostridioides difficile, NC13366, 48h at 37°C, quinolone-resistant hypervirulent strain, read-out: MIC regarding C. difficile NC 13366
[2] = tested on: 209 diverse clinical isolates of C. difficile; assay: CLSI agar dilution MIC, clinical isolates; type: cell-based, Clostridium difficile; conditions: Clostridioides difficile, 48 h; 209 clinical isolates of C. difficile; read-out: MIC90
[3] = tested on: Bacteroides fragilis A-294 T 9174; assay: Agar dilution MIC, anaerobic strains; type: cell-based; conditions: A294T9174, 48 h
[4] = tested on: Bacteroides fragilis A-293 B 2518; assay: Agar dilution MIC, anaerobic strains; type: cell-based; conditions: A293B2518, 48 h
[5] = tested on: Eubacterium limosum A-1259 DSM 20698; assay: Agar dilution MIC, anaerobic strains; type: cell-based
[6] = tested on: Bifidobacterium adolescentis A-1257 DSM 20083; assay: Agar dilution MIC, anaerobic strains; type: cell-based; conditions: DSM20083, 48 h
[7] = tested on: Bifidobacterium bifidum A-1258 DSM 20456; assay: Agar dilution MIC, anaerobic strains; type: cell-based; conditions: DSM20456, 48 h
[8] = tested on: Lactobacillus acidophilus A-1255 DSM 20079; assay: Agar dilution MIC, anaerobic strains; type: cell-based
[9] = tested on: Lactococcus lactis A-1256 DSM 20069; assay: Agar dilution MIC, anaerobic strains; type: cell-based
[10] = tested on: S. aureus S1 (LZD-R); assay: Broth microdilution MIC, aerobic Gram-positive bacteria; conditions: Staphylococcus aureus, 48 h
[11] = tested on: E. faecalis H 6279; assay: as above; conditions: Enterococcus faecalis, H6279, 48 h
[12] = tested on: E. faecalis H 6897; assay: as above; conditions: Enterococcus faecalis, H6897, 48 h
[13] = tested on: E. faecalis H 7094; assay: as above; conditions: Enterococcus faecalis, H7094, 48 h
[14] = tested on: E. faecium H 7966; assay: as above; conditions: Enterococcus faecium, H7966, 48 h
[15] = tested on: E. faecium A 962; assay: as above; conditions: Enterococcus faecium, A962, 48 h
[16] = tested on: E. faecium A 949; assay: as above; conditions: Enterococcus faecium, A949, 48 h

Molecule O=C(O)c1cn(C2CC2)c2cc(N3CCC(O)(COc4ccc(N5C[C@H](CO)OC5=O)cc4F)CC3)c(F)cc2c1=O [Example 1, 1-cyclopropyl-6-fluoro-7-{4-[2-fluoro-4-((R)-5-hydroxymethyl-2-oxo-oxazolidin-3-yl)-phenoxymethyl]-4-hydroxy-piperidin-1-yl}-4-oxo-1,4-dihydro-quinoline-3-carboxylic acid] has an MIC [1] of 0.06 µg/mL (≈ 0.102 µM), an MIC90 [2] of 0.25 µg/mL (≈ 0.427 µM) and an MIC [3] of 4 µg/mL (≈ 6.83 µM). For the same molecule, the MIC [4] was 4 µg/mL (≈ 6.83 µM), the MIC ([5]; DSM20698, 48 h, Eubacterium limosum A-1259, DSM 20698) was 1 µg/mL (≈ 1.71 µM) and the “less activity against Eubacterium limosum A-1259 compared to the compound of Example 5 of WO 2005/058888” value ([5]; versus R1) was 4 times. For the same molecule, the MIC [6] was 0.5 µg/mL (≈ 0.854 µM), the MIC [7] was 0.5 µg/mL (≈ 0.854 µM) and the MIC ([8]; DSM20079, 48 h, Lactobacillus acidophilus A-1255, DSM 20079) was 0.5 µg/mL (≈ 0.854 µM). The “less activity against Lactobacillus acidophilus A-1255 compared to the compound of Example 5 of WO 2005/058888” value ([8]; versus R1) was 8 times, the MIC ([9]; DSM20069, 48 h, Lactococcus lactis A-1256, DSM 20069) was 0.5 µg/mL (≈ 0.854 µM) and the “less activity against Lactococcus lactis A-1256 compared to the compound of Example 5 of WO 2005/058888” value ([9]; versus R1) was 8 times. It also gave an MIC [10] of 1 µg/mL (≈ 1.71 µM), an MIC [11] of 0.25 µg/mL (≈ 0.427 µM) and an MIC [12] of 1 µg/mL (≈ 1.71 µM). It also gave an MIC [13] of 0.5 µg/mL (≈ 0.854 µM), an MIC [14] of 0.5 µg/mL (≈ 0.854 µM) and an MIC [15] of 0.5 µg/mL (≈ 0.854 µM). For the same molecule, the MIC [16] was 1 µg/mL (≈ 1.71 µM).
